Reference: ChEMBL document CHEMBL1201862, “PubChem BioAssay data set” (2004)
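A five-concentration, 48-hour dose response in 96-well plates underlies each endpoint, interpolated linearly between surrounding concentrations. Here, GI50 denotes the concentration required for 50% inhibition of growth.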 Active and inactive are the calls of the source. Cut-off read from the data, not from the text of the source: active = GI50 up to about 1.1 µM and inactive = higher.

Assays:
Experiment in all cases: NCI-60 cell line screen, 48 h
A549 = tested on: A549
ACHN = tested on: ACHN
COLO 205 = tested on: COLO 205
HOP-62 = tested on: HOP-62
IGROV-1 = tested on: IGROV-1
K562 = tested on: K562
KM12 = tested on: KM12
M14 = tested on: M14
MOLT-4 = tested on: MOLT-4
Malme-3M = tested on: Malme-3M
NCI-H460 = tested on: NCI-H460
OVCAR-3 = tested on: OVCAR-3
OVCAR-4 = tested on: OVCAR-4
SK-MEL-28 = tested on: SK-MEL-28
TK-10 = tested on: TK-10
UACC-62 = tested on: UACC-62
NCI/ADR-RES = tested on: NCI/ADR-RES
PC-3 = tested on: PC-3

Measured: GI50

C/C(=N\NC(=S)NC(CCC(=O)O)C(=O)O)c1cnccn1 (stereo unspecified)
inactive: A549 > 100 µM | ACHN > 100 µM | COLO 205 > 100 µM | HOP-62 > 100 µM | IGROV-1 > 100 µM | K562 > 100 µM | KM12 > 100 µM | M14 > 100 µM | MOLT-4 > 100 µM | Malme-3M > 100 µM | NCI-H460 > 100 µM | OVCAR-3 > 100 µM | OVCAR-4 > 100 µM | SK-MEL-28 > 100 µM | TK-10 > 100 µM | UACC-62 > 100 µM

CCOC(=O)C1C/C(C)=C(/C)SCCCS1 (stereo unspecified)
inactive: A549 > 100 µM | ACHN > 100 µM | COLO 205 > 100 µM | HOP-62 > 100 µM | IGROV-1 > 100 µM | K562 46.1 µM | KM12 > 100 µM | M14 > 100 µM | MOLT-4 38.2 µM | Malme-3M > 100 µM | NCI-H460 > 100 µM | NCI/ADR-RES > 100 µM | OVCAR-3 98.9 µM | OVCAR-4 > 100 µM | PC-3 > 100 µM | SK-MEL-28 > 100 µM | TK-10 > 100 µM | UACC-62 > 100 µM

O=C1NN(c2ccccc2)C(=O)C2C3c4ccccc4C(c4ccccc43)C12 (stereo unspecified)
inactive: A549 > 100 µM | ACHN > 100 µM | COLO 205 78.2 µM | HOP-62 56.8 µM | IGROV-1 > 100 µM | K562 43.2 µM | KM12 > 100 µM | M14 > 100 µM | MOLT-4 6.22 µM | Malme-3M 85.1 µM | NCI-H460 > 100 µM | NCI/ADR-RES > 100 µM | OVCAR-3 > 100 µM | OVCAR-4 60 µM | PC-3 24.3 µM | SK-MEL-28 > 100 µM | TK-10 > 100 µM | UACC-62 > 100 µM

Cc1nc2ccc([N+](=O)[O-])cc2c(=O)n1C(=S)Nc1cccc(Cl)c1
inactive: A549 23.2 µM | ACHN 17.5 µM | COLO 205 14 µM | HOP-62 19.2 µM | K562 20.7 µM | KM12 12.9 µM | M14 21.9 µM | MOLT-4 17.9 µM | Malme-3M 21.1 µM | NCI-H460 14.9 µM | NCI/ADR-RES 19.4 µM | OVCAR-3 12.3 µM | OVCAR-4 19.5 µM | PC-3 15.2 µM | SK-MEL-28 17.6 µM | TK-10 23.8 µM | UACC-62 12.5 µM

Cc1ccc(S(=O)(=O)N/N=C(\CCN2CCCC2)CC(c2ccccc2)c2c(O)c3ccccc3oc2=O)cc1 (stereo unspecified)
inactive: A549 > 100 µM | ACHN > 100 µM | HOP-62 > 100 µM | IGROV-1 > 100 µM | K562 88.9 µM | KM12 > 100 µM | M14 > 100 µM | Malme-3M > 100 µM | NCI-H460 > 100 µM | OVCAR-3 > 100 µM | OVCAR-4 > 100 µM | TK-10 > 100 µM | UACC-62 > 100 µM

COC1/C=C\OC2(C)Oc3c(C)c(O)c4c(O)c(c(/C=N\OCCCc5ccccc5)c(O)c4c3C2=O)NC(=O)/C(C)=C\C=C/C(C)C(O)C(C)C(O)C(C)C(OC(C)=O)C1C (stereo unspecified)
inactive: A549 3.83 µM | ACHN 2.56 µM | COLO 205 1.78 µM | HOP-62 2.59 µM | IGROV-1 2.39 µM | K562 4.16 µM | KM12 4.47 µM | M14 2.71 µM | MOLT-4 3.46 µM | Malme-3M 3.54 µM | NCI-H460 3.49 µM | NCI/ADR-RES 3.66 µM | OVCAR-3 3.07 µM | OVCAR-4 3.08 µM | PC-3 3.18 µM | SK-MEL-28 2.06 µM | TK-10 3.23 µM | UACC-62 2.79 µM

CC(C)(C)C1=Cc2cc3cc(C(C)(C)C)[nH]c(=O)c3cc2S(=O)(=O)N1
inactive: A549 23.2 µM | ACHN 30.3 µM | COLO 205 21.5 µM | HOP-62 22.3 µM | K562 45.4 µM | KM12 30.6 µM | M14 14.6 µM | MOLT-4 28.1 µM | Malme-3M 22.4 µM | NCI-H460 37 µM | OVCAR-3 19 µM | OVCAR-4 24.6 µM | SK-MEL-28 31.3 µM | TK-10 29.6 µM | UACC-62 18.4 µM

Nc1nc(Cl)c2nnn(CC3CCC(CO)C3)c2n1 (stereo unspecified)
inactive: A549 > 100 µM | ACHN > 100 µM | COLO 205 > 100 µM | HOP-62 > 100 µM | K562 > 100 µM | KM12 > 100 µM | M14 > 100 µM | NCI/ADR-RES > 100 µM | OVCAR-3 > 100 µM | OVCAR-4 > 100 µM | PC-3 > 100 µM | SK-MEL-28 > 100 µM | TK-10 > 100 µM | UACC-62 > 100 µM

[N-]=[N+]=NC1CC(n2ccc(N)nc2=O)OC1COP(=O)(O)OP(=O)(O)OP(=O)(O)O (stereo unspecified)
inactive: A549 > 100 µM | ACHN > 100 µM | COLO 205 > 100 µM | HOP-62 > 100 µM | IGROV-1 > 100 µM | K562 > 100 µM | M14 > 100 µM | MOLT-4 > 100 µM | Malme-3M > 100 µM | NCI-H460 > 100 µM | NCI/ADR-RES > 100 µM | OVCAR-3 > 100 µM | OVCAR-4 > 100 µM | PC-3 > 100 µM | SK-MEL-28 > 100 µM | UACC-62 > 100 µM

CCN1CCN(c2ccc(Nc3ccnc4ccc5nn(C)nc5c34)cc2)CC1
inactive: A549 13.8 µM | ACHN 10.6 µM | COLO 205 5.08 µM | HOP-62 13.1 µM | IGROV-1 18.6 µM | K562 5.12 µM | KM12 10.7 µM | M14 16.1 µM | MOLT-4 4.5 µM | Malme-3M 16.9 µM | NCI-H460 5.41 µM | OVCAR-3 13.5 µM | OVCAR-4 11.9 µM | SK-MEL-28 16.6 µM | TK-10 17.5 µM | UACC-62 16.9 µM

N#Cc1c(=O)c2ccccc2n2ccccc12
inactive: A549 29.8 µM | ACHN > 100 µM | COLO 205 > 100 µM | IGROV-1 > 100 µM | K562 > 100 µM | KM12 > 100 µM | Malme-3M > 100 µM | NCI-H460 > 100 µM | NCI/ADR-RES > 100 µM | OVCAR-4 > 100 µM | PC-3 19.7 µM | SK-MEL-28 > 100 µM | TK-10 > 100 µM | UACC-62 > 100 µM

CC1CC(c2ccc(Cl)cc2)=Nc2ccccc2S1 (stereo unspecified)
inactive: A549 > 100 µM | ACHN > 100 µM | COLO 205 > 100 µM | HOP-62 > 100 µM | IGROV-1 > 100 µM | K562 > 100 µM | KM12 > 100 µM | M14 > 100 µM | MOLT-4 > 100 µM | Malme-3M > 100 µM | NCI-H460 > 100 µM | OVCAR-3 > 100 µM | OVCAR-4 > 100 µM | SK-MEL-28 > 100 µM | TK-10 > 100 µM | UACC-62 > 100 µM
